Data published in patent US20230174946A1, “ORGAN INFECTION MODELS” (priority 2020, published 2023).
Read-outs that look alike come from different tables or passages of the source.

What was measured:
SARS-CoV-2 [1] = type: cell-based; details: 10 µM Hydroxychloroquine or Remdesivir, 100 units/ml IFNB1; for reduction in viral N gene RNA/expression compared to untreated infected organoids: human 3D alveolar organoids
SARS-CoV-2 [2] = type: cell-based; details: for effect on viral N gene RNA / viral replication in proximal ALI cultures (in words): pre-treatment, 10 µM Hydroxychloroquine or Remdesivir, 100 units/ml IFNB1
SARS-CoV-2 [3] = type: cell-based; details: 10 µM Hydroxychloroquine or Remdesivir, 100 units/ml IFNB1
coxsackievirus = details: dose-dependent; previous study; cited from earlier work

Compound | reduction in viral N gene RNA/expression compared to untreated infected organoids (SARS-CoV-2 [1]) [log] | effect on viral replication in alveolar organoid cultures (in words) (SARS-CoV-2 [1]; pre-treatment) | effect on viral N gene RNA / viral replication in proximal ALI cultures (in words) (SARS-CoV-2 [2]) | effect on viral N gene RNA / viral replication in proximal ALI cultures (in words) (SARS-CoV-2 [2]; listed as hydroxychloroquine) | reduction in viral N gene RNA/expression compared to untreated infected AT2 cultures (SARS-CoV-2 [3]) [log] | effect on viral infection/replication in AT2 cultures (in words) (SARS-CoV-2 [3]; pre-treatment) | effect on coxsackievirus proliferation in vitro (coxsackievirus) | reduction in viral N gene RNA abundance (SARS-CoV-2 [2]) [log]
CCN(CCO)CCCC(C)Nc1ccnc2cc(Cl)ccc12 (stereo not shown) [Hydroxychloroquine] | 2.4 | significantly reduced viral replication | did not show a significant effect | did not have an effect on viral replication | 2.4 | significantly reduced viral replication |  | 
NC(=O)c1ncn([C@@H]2O[C@H](CO)[C@@H](O)[C@H]2O)n1 [ribavirin] |  |  |  |  |  |  | significantly reduce coxsackievirus proliferation | 
CCC(CC)COC(=O)[C@H](C)N[P@](=O)(OC[C@H]1O[C@@](C#N)(c2ccc3c(N)ncnn23)[C@H](O)[C@@H]1O)Oc1ccccc1 [Remdesivir] | 9 |  |  |  | 9 |  |  | 10.2
